Measured values as given in article PMC6268315, “Investigating the Spectrum of Biological Activity of Substituted Quinoline-2-Carboxamides and Their Isosteres ^†” (Molecules, 2012).
In brackets after ≈: the same amount, converted by molar mass.

What follows are compounds tested on Mycobacterium tuberculosis CUH071 (assay: In vitro antimycobacterial evaluation (alamarBlue)). Conditions: 168 h, clinical isolate CUH071 with partial INH and PZA resistance, 7 days, read-out: MIC/IC90 M. tuberculosis.
Assay type: cell-based

SMILES | MIC
CC(C)NC(=O)c1ccc2ccccc2n1 [Compound 1, N-Isopropylquinoline-2-carboxamide] | 280 µM (≈ 60 µg/mL)
CCCCCCCCCCCCNC(=O)c1ccc2ccccc2n1 [Compound 2, N-Dodecylquinoline-2-carboxamide] | 367 µM (≈ 125 µg/mL)
O=C(c1ccc2ccccc2n1)N1CCCC1 [Compound 3, 2-(Pyrrolidin-1-ylcarbonyl)quinoline] | 552 µM (≈ 125 µg/mL)
O=C(NC1CCCC1)c1ccc2ccccc2n1 [Compound 5, N-Cyclopentylquinoline-2-carboxamide] | 491 µM (≈ 118 µg/mL)
O=C(NC1CCCCC1)c1ccc2ccccc2n1 [Compound 6, N-Cyclohexylquinoline-2-carboxamide] | 125 µM (≈ 31.8 µg/mL)
O=C(NC1CCCCCC1)c1ccc2ccccc2n1 [Compound 7, N-Cycloheptylquinoline-2-carboxamide] | 111 µM (≈ 29.8 µg/mL)
O=C(NCCc1ccccc1)c1ccc2ccccc2n1 [Compound 11, N-(2-Phenylethyl)quinoline-2-carboxamide] | 109 µM (≈ 30.1 µg/mL)
Cc1cccc(NC(=O)c2ccc3ccccc3n2)c1 [Compound 14b, N-(3-Methylphenyl)quinoline-2-carboxamide] | 469 µM (≈ 123 µg/mL)
O=C(c1ccc2ccccc2c1)N1CCCC1 [Compound 22, 1-(2-Naphthoyl)pyrrolidine] | 554 µM (≈ 125 µg/mL)
COc1ccccc1NC(=O)c1ccc2ccccc2c1 [Compound 32a, N-(2-Methoxyphenyl)-2-naphthamide] | 901 µM (≈ 250 µg/mL)
NNC(=O)c1ccncc1 [INH, isoniazid, reference compound] | > 729 µM
NC(=O)c1cnccn1 [PZA, pyrazinamide, reference compound] | > 812 µM
